Laboratory results reported in patent US20240300980A1, “HETEROCYCLIC COMPOUNDS AS KRAS INHIBITOR, AND PREPARATION THEREFOR AND USE THEREOF IN TREATMENT” (SHANGHAI KECHOW PHARMA, INC., priority 2021, published 2024).
Like-named read-outs stand apart in the source and are kept apart here.

Tested on: AGS cells (KRAS^G12D)
Experiment: Detection of cell proliferation in vitro by MTT/MTS method (cell activity experiment)
Format: cell-based
Conditions: AGS cells, MTT/MTS, 3 days of drug treatment, read-out: AGS IC50
How it was run: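 After 3-day compound exposure (final DMSO 0.5%), viability of AGS (KRAS G12D) cells, plated 1000/well one day before dosing, was measured at 490 nm following 4 h MTT or MTS incubation. IC50 was fitted from dose–effect curves relative to DMSO-treated wells.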

Structure (SMILES)	IC50 (Homo sapiens, AGS, 72 h) [nM]	IC50 [nM]
Oc1cc2c(c(-c3ncc4c(N5C[C@H]6CC[C@@H](C5)N6)nc(OC[C@@]56CCCN5C[C@H](F)C6)nc4c3F)c1)CC1(CC1)C2 [Example 300, 4′-(4-((1R,5S)-3,8-diazabicyclo[3.2.1]octan-3-yl)-8-fluoro-2-(((2R,7aS)-2-fluorotetrahydro-1H-pyrrolizin-7a(5H)-yl)methoxy)pyrido[4,3-d]pyrimidin-7-yl)-1′,3′-dihydrospiro[cyclopropane-1,2′-inden]-6′-ol]	177	
CCC1CCCc2cc(O)cc(-c3ccc4c(NCC5(N(C)C)CCC5)nc(OC[C@@]56CCCN5C[C@H](F)C6)nc4c3F)c21 (stereo partly drawn) [Example 428, 4-(4-(((1-(dimethylamino)cyclobutyl)methyl)amino)-8-fluoro-2-(((2R,7aS)-2-fluorotetrahydro-1H-pyrrolizin-7a(5H)-yl)methoxy)quinazolin-7-yl)-5-ethyl-5,6,7,8-tetrahydronaphthalen-2-ol]	70	
C#Cc1c(F)ccc2cc(O)cc(-c3ccc4c(N5CC6(CCN6)C5)nc(OC[C@@]56CCCN5C[C@H](F)C6)nc4c3F)c12 [Example 216, 5-ethynyl-6-fluoro-4-(8-fluoro-2-(((2R,7aS)-2-fluorotetrahydro-1H-pyrrolizin-7a(5H)-yl)methoxy)-4-(1,6-diazaspiro[3.3]heptan-6-yl)quinazolin-7-yl)naphthalen-2-ol]	3480	
Oc1cc(-c2ncc3c(C4C[C@H]5CC[C@@H](C4)N5)nc(OC[C@@]45CCCN4C[C@H](F)C5)nc3c2F)c2c(F)cccc2c1 (stereo partly drawn) [Example 82, 4-(4-((1R,5S)-8-azabicyclo[3.2.1]octan-3-yl)-8-fluoro-2-(((2R,7aS)-2-fluorotetrahydro-1H-pyrrolizin-7a(5H)-yl)methoxy)pyrido [4,3-d]pyrimidin-7-yl)-5-fluoronaphthalen-2-ol]	> 2500	
C#Cc1c(F)ccc2cc(O)cc(-c3ncc4c(-c5cn(C(=O)CO)cn5)nc(OC[C@@]56CCCN5C[C@H](F)C6)nc4c3F)c12 [Example 88, 1-(4-(7-(8-ethynyl-7-fluoro-3-hydroxynaphthalen-1-yl)-8-fluoro-2-(((2R, 7aS)-2-fluorotetrahydro-1H-pyrrolizin-7a(5H)-yl)methoxy)pyrido[4,3-d]pyrimidin-4-yl)-1H-imidazol-1-yl)-2-hydroxyethan-1-one]	> 10000	
CC1CCc2cc(O)cc(-c3c(Cl)cc4c(N5C[C@H]6CC[C@@H](C5)N6)nc(OC[C@@]56CCCN5C[C@H](F)C6)nc4c3F)c21 (stereo partly drawn) [Example 304, 7-(4-((1R,5S)-3,8-diazabicyclo[3.2.1]octan-3-yl)-6-chloro-8-fluoro-2-(((2R,7aS)-2-fluorotetrahydro-1H-pyrrolizin-7a(5H)-yl)methoxy)quinazolin-7-yl)-1-methyl-2,3-dihydro-1H-inden-5-ol]	35	
C#Cc1c(F)ccc2cc(O)cc(-c3ccc4c(N5C[C@H]6CC[C@@H](C5)[C@@H]6S(C)(=O)=O)nc(OC[C@@]56CCCN5C[C@H](F)C6)nc4c3F)c12 [Example 131, 5-ethynyl-6-fluoro-4-(8-fluoro-2-(((2R,7aS)-2-fluorotetrahydro-1H-pyrrolizin-7a(5H)-yl)methoxy)-4-((1R,5S, 8R)-8-(methylsulfonyl)-3-azabicyclo[3.2.1]octan-3-yl)quinazolin-7-yl)naphthalen-2-ol]		> 2500
C#Cc1c(F)ccc2cc(O)cc(-c3ccc4c(N5CCC6(CCCS6)CC5)nc(OC[C@@]56CCCN5C[C@H](F)C6)nc4c3F)c12 [Example 109, 5-ethynyl-6-fluoro-4-(8-fluoro-2-(((2R,7aS)-2-fluorotetrahydro-1H-pyrrolizin-7a(5H)-yl)methoxy)-4-(1-thia-8-azaspiro[4.5]decan-8-yl)quinazolin-7-yl)naphthalen-2-ol]	> 2500	
CC1OCCc2cc(O)cc(C3=C(F)c4nc(OC[C@@]56CCCN5C[C@H](F)C6)nc(N5C[C@H]6CC[C@@H](C5)N6)c4C4=NCCN43)c21 (stereo partly drawn) [Example 410, 8-(10-((1R,5S)-3,8-diazabicyclo[3.2.1]octan-3-yl)-6-fluoro-8-(((2R,7aS)-2-fluorotetrahydro-1H-pyrrolizin-7a(5H)-yl)methoxy)-2,3-dihydroimidazo[1′,2′:1,2]pyrido[4,3-d]pyrimidin-5-yl)-1-methylisochroman-6-ol]	75	
Cc1nccc2cc(O)cc(-c3ncc4c(N5C[C@H]6CC[C@@H](C5)N6)nc(OC[C@@]56CCCN5C[C@H](F)C6)nc4c3F)c12 [Example 343, 8-(4-((1R,5S)-3,8-diazabicyclo[3.2.1]octan-3-yl)-8-fluoro-2-(((2R,7aS)-2-fluorotetrahydro-1H-pyrrolizin-7a(5H)-yl)methoxy)pyrido[4,3-d]pyrimidin-7-yl)-1-methylisoquinolin-6-ol]	17	
Oc1cc(-c2ncc3c(N4C[C@H]5CC[C@@H](C4)C5(F)F)nc(OC[C@@]45CCCN4C[C@H](F)C5)nc3c2F)c2c(F)c(F)ccc2c1 [Example 33, 4-(4-((1R,5S)-8,8-difluoro-3-azabicyclo [3.2.1]octan-3-yl)-8-fluoro-2-(((2R,7aS)-2-fluorotetrahydro-1H-pyrrolizin-7a(5H)-yl)methoxy)pyrido[4,3-d]pyrimidin-7-yl)-5,6-difluoronaphthalen-2-ol]	> 2500	
Oc1cc2c(c(-c3c4c(c5c(N6C[C@H]7CC[C@@H](C6)N7)nc(OC[C@@]67CCCN6C[C@H](F)C7)nc5c3F)OCO4)c1)CCCC2 [Example 390, 4-(9-((1R,5S)-3,8-diazabicyclo[3.2.1]octan-3-yl)-5-fluoro-7-(((2R,7aS)-2-fluorotetrahydro-1H-pyrrolizin-7a(5H)-yl)methoxy)-[1,3]dioxolo[4,5-f]quinazolin-4-yl)-5,6,7,8-tetrahydronaphthalen-2-ol]	150	
C#Cc1c(F)ccc2cc(O)cc(-c3ccc4c(N5CC6CCNC6C5)nc(OC[C@@]56CCCN5C[C@H](F)C6)nc4c3F)c12 (stereo partly drawn) [Example 113, 5-ethynyl-6-fluoro-4-(8-fluoro-2-(((2R,7aS)-2-fluorotetrahydro-1H-pyrrolizin-7a(5H)-yl)methoxy)-4-(hexahydropyrrolo[3,4-b]pyrrol-5(1H)-yl)quinazolin-7-yl) naphthalen-2-ol]	> 2500	
CC[C@H]1CCCc2cc(O)cc(-c3ncc4c(N5CC6CCC(C5)N6)nc(OC[C@@]56CCCN5C[C@H](F)C6)nc4c3F)c21 (single isomer, unassigned) [Example 229, (S)-4-(4-((1R,5S)-3,8-diazabicyclo[3.2.1]octan-3-yl)-8-fluoro-2-(((2R,7aS)-2-fluorotetrahydro-1H-pyrrolizin-7a(5H)-yl)methoxy)pyrido[4,3-d]pyrimidin-7-yl)-5-ethyl-5,6,7,8-tetrahydronaphthalen-2-ol or (R)-4-(4-((1R,5S)-3,8-diazabicyclo[3.2.1]octan-3-yl)-8-fluoro-2-(((2R,7aS)-2-fluorotetrahydro-1H-pyrrolizin-7a(5H)-yl)methoxy)pyrido[4,3-d]pyrimidin-7-yl)-5-ethyl-5,6,7,8-tetrahydronaphthalen-2-ol]	2.5	
C#Cc1c(F)ccc2cc(O)cc(-c3ccc4c(N5C[C@H]6CC[C@@H](C5)N6)nc(OC[C@]56CCCN5[C@@H](COC(=O)N(C)C)CC6)nc4c3)c12 [Example 153, ((3R,7aR)-7a-(((4-((1R, 5S)-3,8-diazabicyclo [3.2.1]octan-3-yl)-7-(8-ethynyl-7-fluoro-3-hydroxynaphthalen-1-yl)quinazolin-2-yl)oxy)methyl)hexahydro-1H-pyrrolizin-3-yl) methyl dimethylcarbamate]		190
CCc1cccc2cc(O)cc(-c3ncc4c(N5C[C@H]6CC[C@@H](C5)N6)c(C#N)c(OC[C@@]56CCCN5C[C@H](F)C6)nc4c3F)c12 [Example 190, 4-((1R,5S)-3,8-diazabicyclo[3.2.1]octan-3-yl)-7-(8-ethyl-3-hydroxynaphthalen-1-yl)-8-fluoro-2-(((2R,7aS)-2-fluorotetrahydro-1H-pyrrolizin-7a(5H)-yl)methoxy)-1,6-naphthyridine-3-carbonitrile]	150	
C#Cc1cc2c(N3C[C@H]4CC[C@@H](C3)N4)nc(OC[C@@]34CCCN3C[C@H](F)C4)nc2c(F)c1-c1cc(O)cc2ccccc12 [Example 369, 4-(4-((1R,5S)-3,8-diazabicyclo[3.2.1]octan-3-yl)-6-ethynyl-8-fluoro-2-(((2R,7aS)-2-fluorotetrahydro-1H-pyrrolizin-7a(5H)-yl)methoxy)quinazolin-7-yl)naphthalen-2-ol]	180	
N#Cc1c(OC[C@@]23CCCN2C[C@H](F)C3)nc2c(F)c(-c3cc(O)cc4ccc(F)c(F)c34)ncc2c1N1C[C@H]2CC[C@@H](C1)N2 [Example 193, 4-((1R,5S)-3,8-diazabicyclo[3.2.1]octan-3-yl)-7-(7,8-difluoro-3-hydroxynaphthalen-1-yl)-8-fluoro-2-(((2R,7aS)-2-fluorotetrahydro-1H-pyrrolizin-7a(5H)-yl)methoxy)-1,6-naphthyridine-3-carbonitrile]	125	
Oc1cc2c(c(-c3ccc4c(N5C[C@H]6CC[C@@H](C5)N6)nc(OC[C@@]56CCCN5C[C@H](F)C6)nc4c3F)c1)C1CC1C2 (stereo partly drawn) [Example 156, 2-(4-((1R,5S)-3,8-diazabicyclo[3.2.1]octan-3-yl)-8-fluoro-2-(((2R,7aS)-2-fluorotetrahydro-1H-pyrrolizin-7a(5H)-yl)methoxy)quinazolin-7-yl)-1,1a,6,6a-tetrahydrocyclopropa [a]inden-4-ol]	40	
C#Cc1c(F)ccc2cc(O)cc(-c3ncc4c(N5C[C@H]6CC[C@@H](C5)O6)nc(OC[C@@]56CCCN5C[C@H](F)C6)nc4c3F)c12 [Example 12, 4-(4-((1R,5S)-8-oxa-3-azabicyclo[3.2.1]octan-3-yl)-8-fluoro-2-(((2R,7aS)-2-fluorotetrahydro-1H-pyrrolizin-7a(5H)-yl)methoxy)pyrido[4,3-d]pyrimidin-7-yl)-5-ethynyl-6-fluoronaphthalen-2-ol]	316	
